These results are taken from patent publication US20180193409A1, “PEPTIDYL TPOR ANTAGONISTS AND USES THEREOF” (POLYMERS CRC LIMITED, priority 2015, published 2018).

Bridge positions count the residues as written; N and C are the ends. Peptide text beside a SMILES is read from it. I, II: the chains in the order shown.

The target of assay [1] is T1, receptor for human TPO (c-Mpl) (Homo sapiens, UniProt P40238).
T1 construct: expressed in transfected cells; host or cells: FD-Mpl (murine, derived from FDCP-1)
T1 sequence (P40238 26-635): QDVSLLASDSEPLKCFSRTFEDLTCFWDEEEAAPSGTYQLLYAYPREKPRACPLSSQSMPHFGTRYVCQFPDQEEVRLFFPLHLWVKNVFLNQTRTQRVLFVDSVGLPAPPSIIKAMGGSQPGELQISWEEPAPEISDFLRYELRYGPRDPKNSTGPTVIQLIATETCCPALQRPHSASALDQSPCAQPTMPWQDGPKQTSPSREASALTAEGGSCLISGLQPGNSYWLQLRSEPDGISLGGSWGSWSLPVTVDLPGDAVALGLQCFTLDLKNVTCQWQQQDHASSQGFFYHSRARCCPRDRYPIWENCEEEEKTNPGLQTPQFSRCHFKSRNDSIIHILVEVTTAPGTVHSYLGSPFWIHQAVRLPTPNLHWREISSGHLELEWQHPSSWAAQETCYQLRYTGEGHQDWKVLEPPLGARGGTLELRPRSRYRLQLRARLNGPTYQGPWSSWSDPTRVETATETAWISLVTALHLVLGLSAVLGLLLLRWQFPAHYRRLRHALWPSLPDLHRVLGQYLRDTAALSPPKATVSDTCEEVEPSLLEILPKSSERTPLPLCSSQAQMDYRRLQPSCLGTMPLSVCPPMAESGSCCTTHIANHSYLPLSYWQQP
Nature of the assay: Antagonist assay: proliferation of FD-Mpl cells in media supplemented with rhTPO (ATP-luminescence). The note with it: murine FD-Mpl cells, 6 or 10 ng/mL rhTPO (LCP also 30 ng/mL), 24 hours; read-out: concentration at which the decrease in normalised cell proliferation occurred (estimated EC50, antagonist assay). The format is cell-based. On the procedure: Bioactivity testing was carried out as follows. All compounds were tested on a murine TPO-dependent cell line FD-Mpl. FD-Mpl cells are derived from the haemopoietic growth factor dependent cell line FDCP-1 and express the receptor for human TPO (c-Mpl)—(as per Winkler, D., Riches, A., Condie, G., Tarasova, A., Andrade, J., White, J., Cablewski, T., Werkmeister, J., Haylock, D. and Meagher, L., ACS Chemical Biology 2010, DOI: 10.1021/cb100100u). […] FD-Mpl cells were counted and resuspended in a mix of cell culture medium with added peptide of interest and incubated at 4° C. for 2 h (for the agonist assay this brief incubation at 4° C. for 2 h was omitted). […]
Cells were then incubated at 37° C. for 24 hours (or 48 hours in the case of the agonist assay) and cell proliferation was assessed as follows. Cells were plated in quadruplicate onto white luminescence detection plates and cell proliferation and viability were assessed by an ATP-luminescence detection assay (CellTiter Glo Luminescent Cell Viability Assay Kit, Promega). Cells were also plated in triplicate and cell morphology was assessed using phase contrast microscopy. […]

In assay [2] the target is T1, receptor for human TPO (c-Mpl). Briefly: Agonist assay: proliferation of FD-Mpl cells in the absence of rhTPO (ATP-luminescence). The format is cell-based. As to conditions: no rhTPO. On the procedure: Bioactivity testing was carried out as follows. All compounds were tested on a murine TPO-dependent cell line FD-Mpl. FD-Mpl cells are derived from the haemopoietic growth factor dependent cell line FDCP-1 and express the receptor for human TPO (c-Mpl)—(as per Winkler, D., Riches, A., Condie, G., Tarasova, A., Andrade, J., White, J., Cablewski, T., Werkmeister, J., Haylock, D. and Meagher, L., ACS Chemical Biology 2010, DOI: 10.1021/cb100100u). These cells are typically cultured in media supplemented with 10% foetal bovine serum and the cytokines interleukin-3, GM-CSF or TPO (as per Naparstek, E., Pierce, J., Metcalf, D., Shadduck, R., Ihle, J., Leder, A., Sakakeeny, M. A., Wagner, K., Falco, J., Fitzgerald, T. J. and Greenberger, J. S., Blood 1986, 67, 1395-1403). In the absence of either of these factors, FDCP-1 cells rapidly undergo apoptosis (usually within 24 hours). FD-Mpl cells were maintained in DMEM medium with 10% foetal calf serum (FCS) and supplemented with 30 ng/mL of recombinant human TPO (rhTPO, Apollo Cytokine Research). For the antagonist assay, FD-Mpl cells were harvested by centrifugation and the resulting cell pellet was thoroughly washed, twice, with 10 mL PBS to remove residual cytokine. The cells were then resuspended in 5 mL of cell culture medium without rhTPO and incubated at 37° C. for 1 h (or 2 h in the case of the agonist assay; Note: short term withdrawal of rhTPO enhances up-regulation of the TPO receptor, c-Mpl). FD-Mpl cells were counted and resuspended in a mix of cell culture medium with added peptide of interest and incubated at 4° C. for 2 h (for the agonist assay this brief incubation at 4° C. for 2 h was omitted). Following this incubation, cells were supplemented with low doses of TPO (either 6 or 10 ng/mL of rhTPO) and plated at 5000 cells/well/100 μL medium in a 96-well tissue culture plate. […]
Cells were then incubated at 37° C. for 24 hours (or 48 hours in the case of the agonist assay) and cell proliferation was assessed as follows. Cells were plated in quadruplicate onto white luminescence detection plates and cell proliferation and viability were assessed by an ATP-luminescence detection assay (CellTiter Glo Luminescent Cell Viability Assay Kit, Promega). Cells were also plated in triplicate and cell morphology was assessed using phase contrast microscopy.
For the antagonist assay, the cell numbers determined via the luminescence assay were normalised by the cell numbers obtained for FD-Mpl cells cultured in either 6 or 10 ng/mL of rhTPO without added peptide and plotted as a function of the peptide concentration (see FIGS. 1a and b). […] For the agonist assay used with the LCP-PD peptide, the cell numbers were normalised by the cell numbers obtained with media supplemented with 30 ng/mL rhTPO and expressed as a percentage. […]

Consider `CC(=O)N[C@@H](C)C(=O)N[C@H]1CSSC[C@@H](C(=O)N[C@@H](C)C(=O)O)NC(=O)[C@H](C)NC(=O)[C@H](C)NC(=O)[C@H](C)NC(=O)[C@H](CC(C)C)NC(=O)[C@H](Cc2c[nH]c3ccccc23)NC(=O)[C@H](CCC(N)=O)NC(=O)[C@H](CCCNC(=N)N)NC(=O)[C@H](CC(C)C)NC(=O)[C@H](C)NC(=O)[C@H](C)NC(=O)[C@H](C)NC1=O` [Example 2, AcACAAALRQWLAAACA] (Ac-ACAAALRQWLAAACA-OH; disulfide 2-14), for which, in assay [1], the EC50 is 20 to 30 µM.
Regarding `CC[C@H](C)[C@@H]1NC(=O)[C@H](C)NC(=O)[C@@H](NC(=O)[C@H](C)NC(C)=O)CSSC[C@H](NC(=O)[C@H](C)NC(C)=O)C(=O)N[C@@H](C)C(=O)N[C@@H]([C@@H](C)CC)C(=O)N[C@@H](CCC(=O)O)C(=O)NCC(=O)N2CCC[C@H]2C(=O)N[C@@H]([C@@H](C)O)C(=O)N[C@@H](CC(C)C)C(=O)N[C@@H](CCCNC(=N)N)C(=O)N[C@@H](CCC(N)=O)C(=O)N[C@@H](Cc2c[nH]c3ccccc23)C(=O)N[C@@H](CC(C)C)C(=O)N[C@@H](C)C(=O)N[C@@H](C)C(=O)N[C@@H](CCCNC(=N)N)C(=O)N[C@@H](C)C(=O)N[C@@H](C)C(=O)N[C@H](C(=O)N[C@@H](C)C(=O)O)CSSC[C@@H](C(=O)N[C@@H](C)C(=O)O)NC(=O)[C@H](C)NC(=O)[C@H](C)NC(=O)[C@H](CCCNC(=N)N)NC(=O)[C@H](C)NC(=O)[C@H](C)NC(=O)[C@H](CC(C)C)NC(=O)[C@H](Cc2c[nH]c3ccccc23)NC(=O)[C@H](CCC(N)=O)NC(=O)[C@H](CCCNC(=N)N)NC(=O)[C@H](CC(C)C)NC(=O)[C@H]([C@@H](C)O)NC(=O)[C@@H]2CCCN2C(=O)CNC(=O)[C@H](CCC(=O)O)NC1=O` [LCP-PD] (I: Ac-ACAIEGPTLRQWLAARAACA-OH / II: Ac-ACAIEGPTLRQWLAARAACA-OH; disulfide I:2-II:2, I:19-II:19; C-terminus assumed), in assay [2] (FD-Mpl cells), the “agonist activity at the c-Mpl receptor (in words)” value is recorded as “potent agonist”.
As for `CC[C@H](C)[C@@H]1NC(=O)[C@H](C)NC(=O)[C@@H](NC(=O)[C@H](C)NC(C)=O)CSSC[C@@H](C(=O)N[C@@H](C)C(=O)O)NC(=O)[C@H](C)NC(=O)[C@H](C)NC(=O)[C@H](CCCNC(=N)N)NC(=O)[C@H](C)NC(=O)[C@H](C)NC(=O)[C@H](CC(C)C)NC(=O)[C@H](Cc2c[nH]c3ccccc23)NC(=O)[C@H](CCC(N)=O)NC(=O)[C@H](CCCNC(=N)N)NC(=O)[C@H](CC(C)C)NC(=O)[C@H]([C@@H](C)O)NC(=O)[C@@H]2CCCN2C(=O)CNC(=O)[C@H](CCC(=O)O)NC1=O` [LCP] (Ac-ACAIEGPTLRQWLAARAACA-OH; disulfide 2-19; C-terminus assumed), the EC50 in assay [1] is roughly 3 µM; in assay [2] (murine FD-Mpl cells, 48 hours, read-out: concentration at which increased cell proliferation was observed (agonist assay)), roughly 0.06 µM. In assay [2] (FD-Mpl cells, normalised by cell numbers with 30 ng/mL rhTPO), the “efficacy with respect to cell proliferation (agonist assay)” value came to 40%.
As for `CC(=O)N[C@@H](C)C(=O)N[C@H]1CSSC[C@H](NC(=O)[C@H](C)NC(C)=O)C(=O)N[C@@H](C)C(=O)N[C@@H](C)C(=O)N[C@@H](C)C(=O)N[C@@H](CC(C)C)C(=O)N[C@@H](CCCNC(=N)N)C(=O)N[C@@H](CCC(N)=O)C(=O)N[C@@H](Cc2c[nH]c3ccccc23)C(=O)N[C@@H](CC(C)C)C(=O)N[C@@H](C)C(=O)N[C@@H](C)C(=O)N[C@@H](C)C(=O)N[C@H](C(=O)N[C@@H](C)C(=O)O)CSSC[C@@H](C(=O)N[C@@H](C)C(=O)O)NC(=O)[C@H](C)NC(=O)[C@H](C)NC(=O)[C@H](C)NC(=O)[C@H](CC(C)C)NC(=O)[C@H](Cc2c[nH]c3ccccc23)NC(=O)[C@H](CCC(N)=O)NC(=O)[C@H](CCCNC(=N)N)NC(=O)[C@H](CC(C)C)NC(=O)[C@H](C)NC(=O)[C@H](C)NC(=O)[C@H](C)NC1=O` [MCP-PD] (I: Ac-ACAAALRQWLAAACA-OH / II: Ac-ACAAALRQWLAAACA-OH; disulfide I:2-II:2, I:14-II:14; C-terminus assumed), the “agonist activity at the c-Mpl receptor (in words)” value in assay [2] (FD-Mpl cells) was “reasonably potent agonist”.
